Results as given in PMC9760430, “A stapled chromogranin A-derived peptide homes in on tumors that express αvβ6 or αvβ8 integrins” (International Journal of Biological Sciences, 2023).
pEC50: −log10 of the molar value. Peptide text beside a SMILES is read from it. * marks the point of attachment. X1 = CC1(C)C(/C=C/C2=C(Oc3ccc(S(=O)(=O)O)cc3)C(=C\C=C3/N(CCCCCC(=O)NCCN4C(=O)CC(*)C4=O)c4ccc(S(=O)(=O)O)cc4C3(C)C)/CCC2)=[N+](CCCCS(=O)(=O)O)c2ccc(S(=O)(=O)[O-])cc21

Molecular target: T1, murine αvβ8 (Mus musculus, UniProt P43406+Q0VBD0)
T1 construct: purchased Bio-Techne
T1 sequence (P43406 31-988 limits assumed): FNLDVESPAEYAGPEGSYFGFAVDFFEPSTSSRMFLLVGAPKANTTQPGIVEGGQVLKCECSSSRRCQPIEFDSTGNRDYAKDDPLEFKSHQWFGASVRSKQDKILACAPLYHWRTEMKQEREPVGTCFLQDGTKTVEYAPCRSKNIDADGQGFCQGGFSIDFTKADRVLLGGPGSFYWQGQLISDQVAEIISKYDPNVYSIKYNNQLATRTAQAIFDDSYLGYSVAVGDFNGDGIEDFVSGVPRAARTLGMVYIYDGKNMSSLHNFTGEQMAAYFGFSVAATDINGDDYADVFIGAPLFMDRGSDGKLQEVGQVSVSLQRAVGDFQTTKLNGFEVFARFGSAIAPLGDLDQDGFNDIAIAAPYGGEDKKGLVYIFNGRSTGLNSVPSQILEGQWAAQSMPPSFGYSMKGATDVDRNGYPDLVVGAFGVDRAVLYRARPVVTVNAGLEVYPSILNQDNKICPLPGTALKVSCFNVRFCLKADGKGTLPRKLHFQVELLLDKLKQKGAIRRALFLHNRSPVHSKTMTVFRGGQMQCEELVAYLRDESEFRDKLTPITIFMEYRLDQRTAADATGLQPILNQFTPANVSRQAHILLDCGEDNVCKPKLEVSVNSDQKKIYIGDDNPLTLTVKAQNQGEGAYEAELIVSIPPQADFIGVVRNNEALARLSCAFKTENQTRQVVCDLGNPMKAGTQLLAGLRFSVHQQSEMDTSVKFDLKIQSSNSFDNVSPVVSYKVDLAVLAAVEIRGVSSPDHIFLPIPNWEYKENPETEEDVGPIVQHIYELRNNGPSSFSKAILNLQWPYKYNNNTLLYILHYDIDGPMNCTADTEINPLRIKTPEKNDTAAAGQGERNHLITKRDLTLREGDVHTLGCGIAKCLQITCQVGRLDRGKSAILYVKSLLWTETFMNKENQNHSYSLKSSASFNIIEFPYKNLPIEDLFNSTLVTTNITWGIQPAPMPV
T1 sequence (Q0VBD0 43-682 limits assumed): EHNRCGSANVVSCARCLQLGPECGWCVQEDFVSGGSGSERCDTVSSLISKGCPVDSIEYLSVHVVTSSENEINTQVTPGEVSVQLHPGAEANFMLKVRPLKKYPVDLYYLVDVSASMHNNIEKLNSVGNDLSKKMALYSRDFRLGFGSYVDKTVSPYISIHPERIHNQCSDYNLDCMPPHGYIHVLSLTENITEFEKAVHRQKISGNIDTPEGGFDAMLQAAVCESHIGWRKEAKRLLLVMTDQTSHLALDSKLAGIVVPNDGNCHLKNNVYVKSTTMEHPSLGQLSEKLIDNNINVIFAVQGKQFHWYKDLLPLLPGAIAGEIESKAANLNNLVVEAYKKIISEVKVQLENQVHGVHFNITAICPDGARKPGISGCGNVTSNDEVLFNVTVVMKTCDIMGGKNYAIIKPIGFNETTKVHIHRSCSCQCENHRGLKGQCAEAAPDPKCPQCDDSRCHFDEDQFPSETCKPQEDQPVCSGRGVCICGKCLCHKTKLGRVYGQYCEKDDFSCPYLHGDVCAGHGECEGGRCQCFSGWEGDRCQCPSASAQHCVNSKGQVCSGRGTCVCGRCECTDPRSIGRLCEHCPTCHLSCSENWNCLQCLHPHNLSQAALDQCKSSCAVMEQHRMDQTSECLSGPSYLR
Assay: direct integrin binding assay of peptide-IRDye conjugates, murine αvβ8-coated plates
Conditions: plates coated with recombinant murine αvβ8; conjugate 0.01-100 nM, 1 h; bound NIR fluorescence; mean ± SE, n = 3 experiments
Experimental: The affinity of peptide-IRDye conjugates for αvβ6 and αvβ8 integrins was determined by a direct binding assay using microtiter plates coated with αvβ6 or αvβ8 (Bio-Techne). After 1 h of incubation, the plates were washed; bound fluorescence was quantified by scanning the plates with an Odyssey CLx near-infrared fluorescence imaging system (LI-COR).
A control conjugate with a cysteine in place of the peptide was also prepared in parallel. […]
The simplified molecular-input line-entry system (SMILES) of 5a-, 2a-, Cys- and 5a-Scr- […]
The concentration of each conjugate was quantified by spectrophotometric analysis at 774 nm (molar absorption coefficient, 240,000 M-1, cm-1) (Figure S3B). The final yield of 5a-IRDye […]
Binding of peptide-IRDye conjugates to avb6 and avb8 integrin […]
conjugates were added to the microtiterplates and incubated at room temperature for 1 h (see Experimental Section). After washing, bound fluorescence was measured using an Odyssey CLx (LI-COR) scanner. Representative images of the scanned plates and quantification of binding are shown. […]

| pEC50 | SMILES |
| --- | --- |
| < 7.00 | CC[C@H](C)[C@H](NC(=O)[C@H](CCCNC(=N)N)NC(=O)[C@H](CCC(=O)O)NC(=O)[C@H](CCC(=O)O)NC(=O)CNC(=O)[C@H](CCCNC(=N)N)NC(=O)[C@H](CC(C)C)NC(=O)[C@@H](NC(=O)[C@H](CCC(=O)O)NC(=O)[C@H](Cc1ccccc1)NC(=O)[C@@H](N)CSC1CC(=O)N(CCNC(=O)CCCCCN2/C(=C\C=C3\CCCC(/C=C/C4=[N+](CCCCS(=O)(=O)O)c5ccc(S(=O)(=O)[O-])cc5C4(C)C)=C3Oc3ccc(S(=O)(=O)O)cc3)C(C)(C)c3cc(S(=O)(=O)O)ccc32)C1=O)[C@@H](C)O)C(=O)N[C@@H](CC(C)C)C(=O)N[C@@H](CO)C(=O)N[C@H](C(=O)N[C@@H](CC(C)C)C(=O)N[C@@H](CCCNC(=N)N)C(=O)N[C@@H](Cc1c[nH]cn1)C(=O)N[C@@H](CCC(N)=O)C(=O)N[C@@H](CC(N)=O)C(=O)N[C@@H](CC(C)C)C(=O)N[C@@H](CC(C)C)C(=O)N[C@@H](CCCCN)C(=O)N[C@@H](CCC(=O)O)C(=O)N[C@@H](CC(C)C)C(=O)N[C@@H](CCC(N)=O)C(=O)N[C@@H](CC(=O)O)C(N)=O)[C@@H](C)CC (some centres unmarked) [2a-IRDye] (H-C(X1)FETLRGEERILSILRHQNLLKELQD-NH2) |
| < 7.00 | CC1(C)C(/C=C/C2=C(Oc3ccc(S(=O)(=O)O)cc3)C(=C\C=C3/N(CCCCCC(=O)NCCN4C(=O)CC(SC[C@H](N)C(=O)O)C4=O)c4ccc(S(=O)(=O)O)cc4C3(C)C)/CCC2)=[N+](CCCCS(=O)(=O)O)c2ccc(S(=O)(=O)[O-])cc21 (some centres unmarked) [Cys-IRDye] |
